From patent US11001590B2, “Pyrazolopyrimidine derivatives” (BAYER ANIMAL HEALTH GMBH, priority 2016, dated 2021) come the findings set out here.

The structures appear in SMILES notation.

In this experiment the target is C. elegans Slo-1a (Caenorhabditis elegans, UniProt Q95V25). The experiment can be described thus: In vitro assay 1: C. elegans Slo-1a, action at a recombinant C. elegans CHO cell line (membrane potential measurement). As to conditions: CHO cells expressing C. elegans Slo-1a; voltage sensitive dye, FLIPR Tetra; negative decadic logarithm of EC50.
Chain of C. elegans Slo-1a (Q95V25 whole entry): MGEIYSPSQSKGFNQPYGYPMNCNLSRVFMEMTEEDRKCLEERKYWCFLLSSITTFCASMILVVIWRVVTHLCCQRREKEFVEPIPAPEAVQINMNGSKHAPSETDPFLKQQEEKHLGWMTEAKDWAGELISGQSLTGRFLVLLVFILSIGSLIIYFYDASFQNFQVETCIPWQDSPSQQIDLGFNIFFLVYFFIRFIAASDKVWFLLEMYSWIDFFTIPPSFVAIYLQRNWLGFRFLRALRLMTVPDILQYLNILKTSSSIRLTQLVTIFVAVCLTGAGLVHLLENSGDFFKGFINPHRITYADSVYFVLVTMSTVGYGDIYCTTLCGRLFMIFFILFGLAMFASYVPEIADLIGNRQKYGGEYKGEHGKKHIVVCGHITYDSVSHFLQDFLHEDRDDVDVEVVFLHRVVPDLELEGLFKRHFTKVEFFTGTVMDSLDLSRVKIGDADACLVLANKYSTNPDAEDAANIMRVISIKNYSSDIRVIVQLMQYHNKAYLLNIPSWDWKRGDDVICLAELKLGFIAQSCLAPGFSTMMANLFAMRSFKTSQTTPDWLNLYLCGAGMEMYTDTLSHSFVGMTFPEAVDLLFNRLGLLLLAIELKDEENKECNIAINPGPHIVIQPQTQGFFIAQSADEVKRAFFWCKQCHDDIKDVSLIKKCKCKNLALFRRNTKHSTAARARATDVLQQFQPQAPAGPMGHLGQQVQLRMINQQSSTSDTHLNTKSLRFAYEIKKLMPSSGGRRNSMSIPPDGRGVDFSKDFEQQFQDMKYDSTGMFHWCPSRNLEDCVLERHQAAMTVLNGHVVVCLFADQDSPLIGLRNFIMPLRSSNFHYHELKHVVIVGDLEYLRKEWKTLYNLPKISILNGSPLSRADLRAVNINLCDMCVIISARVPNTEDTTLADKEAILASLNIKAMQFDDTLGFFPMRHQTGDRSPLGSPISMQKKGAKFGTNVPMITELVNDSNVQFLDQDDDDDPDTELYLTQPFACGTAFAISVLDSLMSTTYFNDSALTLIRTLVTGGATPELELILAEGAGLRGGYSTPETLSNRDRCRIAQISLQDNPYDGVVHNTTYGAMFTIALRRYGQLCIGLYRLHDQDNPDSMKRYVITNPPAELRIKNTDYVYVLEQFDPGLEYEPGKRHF
Take `O=C(N[C@H]1CCOc2ccccc21)c1cnc2c(-c3c(Cl)cccc3Cl)c(C(F)F)nn2c1C1CC1` [Example 271]: the pE50 is given as 8.5.

`CC(C)c1c(C(=O)N[C@H]2CCc3ccccc32)cnc2c(-c3ccccc3Cl)cnn12` [Example 24]: the pE50 was 7.2.

Turning to `COc1c(F)ccc(-c2c(C(F)F)nn3c(C4CC4)c(C(=O)N[C@H]4CCOc5ccccc54)cnc23)c1F` [Example 269], the pE50 was found to be 9.

For `O=C(N[C@H]1CCOc2ccccc21)c1cnc2c(-c3c(F)ccc(Cl)c3F)c(C(F)F)nn2c1C1CC1` [Example 280], the pE50 is 8.9.

As to `Cc1nn2c(C(C)C)c(C(=O)N[C@H]3CCc4ccccc43)cnc2c1-c1ccccc1Cl` [Example 20], the pE50 stood at 7.9.

With `CC(C)c1c(C(=O)N[C@H]2CCc3ccccc32)cnc2c(-c3cccc(F)c3F)c(Cl)nn12` [Example 285], the pE50 was 8.

In the case of `Cc1c(C(=O)N[C@H]2CCc3ccccc32)cnc2c(-c3ccccc3Cl)cnn12` [Example 43], the pE50 is 6.8.

On to `Cc1nn2c(C3CC3)c(C(=O)N[C@H]3CCOc4ccccc43)cnc2c1-c1cccc(O)c1` [Example 501], for which the pE50 is listed as 6.3.

With `CC(C)c1c(C(=O)N[C@H]2CCOc3ccccc32)cnc2c(-c3c(Cl)cccc3Cl)c(C(F)F)nn12` [Example 503], the pE50 stood at 7.9.

For the compound `CC(C)c1c(C(=O)N[C@H]2CCc3ccccc32)cnc2c(-c3ccc(Cl)cc3)cnn12` [Example 23], the pE50 came to 7.2.

As for `CC(C)c1c(C(=O)N[C@H]2CCCc3ccccc32)cnc2c(-c3ccc(Cl)cc3)cnn12` [Example 25], the pE50 worked out at 6.6.

Take `CCc1c(C(=O)N[C@H]2CCOc3ccccc32)cnc2c(-c3cc(Cl)ccc3Cl)c(C)nn12` [Example 486]: the pE50 was found to be 8.4.

Turning to `Cc1nn2c(C(C)C)c(C(=O)N[C@H]3CCCc4ccccc43)cnc2c1-c1ccc(Cl)cc1` [Example 29], the pE50 worked out at 6.7.

For `Cc1nn2c(C)c(C(=O)N[C@H]3CCc4ccccc43)cnc2c1-c1ccc(Cl)cc1` [Example 27], the pE50 was determined as 7.2.

For the compound `Cc1nn2c(C)c(C(=O)N[C@H]3CCCc4ccccc43)cnc2c1-c1ccccc1Cl` [Example 9], the pE50 came out at 7.8.

`CC(C)c1c(C(=O)N[C@H]2CCOc3ccccc32)cnc2c(-c3ccc(F)c(F)c3)c(Cl)nn12` [Example 500]: the pE50 was 7.7.

For `COc1c(F)ccc(-c2c(C)nn3c(C4CC4)c(C(=O)N[C@H]4CCOc5ccccc54)cnc23)c1F` [Example 284], the pE50 amounted to 9.1.

As to `CC(C)c1c(C(=O)N[C@H]2CCOc3ccccc32)cnc2c(-c3c(F)ccc(Cl)c3F)c(C(F)F)nn12` [Example 277], the pE50 is 8.8.

In the case of `CC(C)c1c(C(=O)N[C@H]2CCOc3ccccc32)cnc2c(-c3cc(Cl)ccc3Cl)c(C(F)F)nn12` [Example 494], the pE50 stood at 8.5.

As for `O=C(N[C@H]1CCOc2ccccc21)c1cnc2c(-c3cccc(Cl)c3Cl)c(C(F)F)nn2c1C1CC1` [Example 512], the pE50 is on record as 8.9.

In the case of `CCc1c(C(=O)N[C@H]2CCOc3ccccc32)cnc2c(-c3cccc(Cl)c3Cl)c(C)nn12` [Example 484], the pE50 came out at 8.6.

For `Cc1nn2c(C(C)C)c(C(=O)N[C@H]3CCc4ccccc43)cnc2c1-c1cc(Cl)cc(Cl)c1` [Example 8], the pE50 is on record as 7.5.

With `CCc1c(C(=O)N[C@H]2CCOc3ccccc32)cnc2c(-c3cccc(F)c3F)c(C)nn12` [Example 477], the pE50 is 8.2.

For the compound `Cc1c(C(=O)N[C@H]2CCCc3ccccc32)cnc2c(-c3ccc(Cl)cc3)cnn12` [Example 41], the pE50 is recorded as 4.8.

Regarding `CC(C)c1c(C(=O)N[C@H]2CCCc3ccccc32)cnc2c(-c3cccc(F)c3F)c(Cl)nn12` [Example 286], the pE50 is 7.9.

On to `Cc1c(C(=O)N[C@H]2CCCc3ccccc32)cnc2c(-c3ccccc3Cl)cnn12` [Example 42], for which the pE50 came to 6.2.

Regarding `Cc1nn2c(N3CCOCC3)c(C(=O)N[C@H]3CCOc4ccccc43)cnc2c1-c1c(F)ccc(Cl)c1F` [Example 545], the pE50 was 8.8.

Regarding `O=C(N[C@H]1CCOc2ccccc21)c1cnc2c(-c3ccc(F)c(F)c3)c(C(F)F)nn2c1C1CC1` [Example 274], the pE50 is reported as 7.7.

As for `Cc1nn2c(N(C)C)c(C(=O)N[C@H]3CCOc4ccccc43)cnc2c1-c1cccc(Cl)c1F` [Example 552], the pE50 worked out at 8.7.

`O=C(N[C@H]1CCOc2ccccc21)c1cnc2c(-c3ccc(F)c(F)c3F)c(C(F)F)nn2c1C1CC1` [Example 498]: the pE50 is recorded as 8.3.

For the compound `O=C(N[C@H]1CCOc2ccccc21)c1cnc2c(-c3cc(Cl)ccc3Cl)c(C(F)F)nn2c1C1CC1` [Example 492], the pE50 came out at 8.9.

For `O=C(N[C@H]1CCOc2ccccc21)c1cnc2c(-c3ccc(Cl)cc3Cl)c(C(F)F)nn2c1C1CC1` [Example 511], the pE50 was found to be 8.4.

Regarding `CCc1c(C(=O)N[C@H]2CCOc3ccccc32)cnc2c(-c3ccc(F)c(F)c3)c(C)nn12` [Example 487], the pE50 stood at 7.7.

With `Cc1nn2c(C3CC3)c(C(=O)N[C@H]3CCOc4ccccc43)cnc2c1-c1cc(C(F)(F)F)ccc1Cl` [Example 509], the pE50 is listed as 8.9.

For `Cc1nn2c(N(C)C)c(C(=O)N[C@H]3CCOc4ccccc43)cnc2c1-c1ccc(F)c(N(C)C)c1F` [Example 550], the pE50 came to 8.7.

Consider `CCc1c(C(=O)N[C@H]2CCOc3ccccc32)cnc2c(-c3ccc(F)c(F)c3F)c(C)nn12` [Example 490], for which the pE50 stood at 8.3.

Turning to `Cc1nn2c(C(C)C)c(C(=O)N[C@H]3CCCc4ccccc43)cnc2c1-c1ccccc1Cl` [Example 19], the pE50 is on record as 8.

With `Cc1nn2c(N(C)C)c(C(=O)N[C@H]3CCOc4ccccc43)cnc2c1-c1c(F)ccc(F)c1F` [Example 554], the pE50 came out at 8.7.

On to `O=C(N[C@H]1CCOc2ccccc21)c1cnc2c(-c3cccc(F)c3F)c(C(F)F)nn2c1C1CC1` [Example 270], for which the pE50 was determined as 8.4.

For the compound `O=C(N[C@H]1CCOc2ccccc21)c1cnc2c(-c3c(F)cccc3Cl)c(C(F)F)nn2c1C1CC1` [Example 499], the pE50 amounted to 8.5.

For the compound `CC(C)c1c(C(=O)N[C@H]2CCOc3ccccc32)cnc2c(-c3cc(Cl)c(F)c(Cl)c3)c(C(F)F)nn12` [Example 282], the pE50 was found to be 8.3.

`CC(C)c1c(C(=O)N[C@H]2CCOc3ccccc32)cnc2c(-c3c(F)cccc3Cl)c(C(F)F)nn12` [Example 506]: the pE50 stood at 8.1.

As to `Cc1nn2c(N(C)C3CC3)c(C(=O)N[C@H]3CCOc4ccccc43)cnc2c1-c1cc(Cl)cc(Cl)c1` [Example 555], the pE50 is 7.6.

`O=C(N[C@H]1CCOc2ccccc21)c1cnc2c(-c3c(F)cccc3F)c(C(F)F)nn2c1C1CC1` [Example 493]: the pE50 is 8.7.

Take `Cc1nn2c(N(C)C)c(C(=O)N[C@H]3CCOc4ccccc43)cnc2c1-c1cc(C(F)(F)F)ccc1F` [Example 547]: the pE50 was determined as 8.9.

Consider `Cc1nn2c(C(C)C)c(C(=O)N[C@H]3CCc4ccccc43)cnc2c1-c1ccc(Cl)cc1` [Example 32], for which the pE50 amounted to 7.5.

As for `COc1c(F)ccc(-c2c(C(F)F)nn3c(C(C)C)c(C(=O)N[C@H]4CCOc5ccccc54)cnc23)c1F` [Example 502], the pE50 is on record as 8.6.

As for `Cc1nn2c(C(C)C)c(C(=O)N[C@H]3CCOc4ccccc43)cnc2c1-c1ccc(F)c(N(C)C)c1F` [Example 283], the pE50 came to 9.3.

Take `O=C(N[C@H]1CCOc2ccccc21)c1cnc2c(-c3cc(Cl)c(F)c(Cl)c3)c(C(F)F)nn2c1C1CC1` [Example 272]: the pE50 was determined as 7.6.

For `Cc1nn2c(N(C)C)c(C(=O)N[C@H]3CCOc4ccccc43)cnc2c1-c1cccc(F)c1F` [Example 549], the pE50 turned out to be 8.4.

As to `CC(C)c1c(C(=O)N[C@H]2CCCc3ccccc32)cnc2c(-c3ccccc3Cl)cnn12` [Example 21], the pE50 came out at 6.5.

Take `CC(C)c1c(C(=O)N[C@H]2CCOc3ccccc32)cnc2c(-c3cccc(F)c3F)c(C(F)F)nn12` [Example 279]: the pE50 is recorded as 8.2.

Take `CC(C)c1c(C(=O)N[C@H]2CCOc3ccccc32)cnc2c(-c3cccc(Cl)c3)c(Cl)nn12` [Example 275]: the pE50 worked out at 7.9.

With `Cc1nn2c(C(C)C)c(C(=O)N[C@H]3CCOc4ccccc43)cnc2c1-c1cccc2[nH]ccc12` [Example 481], the pE50 came out at 7.7.

On to `Cc1nn2c(C3CC3)c(C(=O)N[C@H]3CCOc4ccccc43)cnc2c1-c1cccc(Cl)c1F` [Example 480], for which the pE50 came to 8.9.

For the compound `Cc1nn2c(C3CC3)c(C(=O)N[C@H]3CCOc4ccccc43)cnc2c1-c1cc(C(F)(F)F)ccc1F` [Example 504], the pE50 turned out to be 8.9.

With `CCc1c(C(=O)N[C@H]2CCOc3ccccc32)cnc2c(-c3ccc(Cl)cc3Cl)c(C)nn12` [Example 485], the pE50 is reported as 8.2.

Turning to `CC(C)c1c(C(=O)N[C@H]2CCOc3ccccc32)cnc2c(-c3ccc(F)c(F)c3)c(C(F)F)nn12` [Example 278], the pE50 came to 7.5.

In the case of `CCc1c(C(=O)N[C@H]2CCOc3ccccc32)cnc2c(-c3cc(Cl)c(F)c(Cl)c3)c(C)nn12` [Example 497], the pE50 is recorded as 8.

In the case of `COc1c(F)cc(F)c(-c2c(C)nn3c(C4CC4)c(C(=O)N[C@H]4CCOc5ccccc54)cnc23)c1F` [Example 482], the pE50 is 9.2.

For `CC(C)c1c(C(=O)N[C@H]2CCOc3ccccc32)cnc2c(-c3cccc(Cl)c3)c(C(F)F)nn12` [Example 276], the pE50 is on record as 8.

`CC(C)c1c(C(=O)N[C@H]2CCc3ccccc32)cnc2c(-c3cccc(C(F)(F)F)c3)cnn12` [Example 37]: the pE50 is 6.7.

For the compound `O=C(N[C@H]1CCOc2ccccc21)c1cnc2c(-c3cccc(Cl)c3)c(C(F)F)nn2c1C1CC1` [Example 273], the pE50 is recorded as 8.3.

As to `Cc1nn2c(C(C)C)c(C(=O)N[C@H]3CCOc4ccccc43)cnc2c1-c1cccc2c1ccn2C` [Example 483], the pE50 is given as 7.8.

Turning to `CCc1c(C(=O)N[C@H]2CCOc3ccccc32)cnc2c(-c3cccc(Cl)c3)c(C)nn12` [Example 488], the pE50 is reported as 8.2.
